Tested on: subjects with vitiligo (depigmented areas on neck, trunk and extremities)
Test: Efficacy and safety study in vitiligo, blinded investigator evaluation on a score of 0 to 7
Format: in vivo
Details: share of the subjects in the group; after the 20 week topical treatment regimen was completed; nonfacial areas
Experimental: An efficacy and safety study was conducted to compare the effects of bimatoprost monotherapy, mometasone monotherapy, and the combination of bimatoprost and mometasone. 18 randomized subjects completed the 20 week study, five coming in each of the bimatoprost monotherapy and mometasone monotherapy groups with the other eight coming in the bimatoprost/mometasone combination group. Subjects with vitiligo applied the corresponding drug(s) to depigmented areas on their neck, truck, and extremities. Per FDA request, facial areas where not treated during the study. For the bimatoprost monotherapy group, subjects were instructed to administer bimatoprost twice daily (morning and evening) for all 20 weeks. For the mometasone monotherapy group, subjects were instructed to administer mometasone once daily in the morning for weeks 1-12 and 17-20. Placebo (Cetaphil) was instructed to be administered in the morning for weeks 13-16 and in the evening for all 20 weeks. For the bimatoprost/mometasone combination group, subjects were instructed to administer mometasone once daily in the morning for weeks 1-12 and 17-20 and placebo was administered in the morning for weeks 13-16. Subjects were instructed to administer bimatoprost once daily evening for all 20 weeks. Subjects in either the bimatoprost monotherapy group or the bimatoprost/mometasone combination group the subjects were instructed to administer bimatoprost in the form of a 0.03 wt. % solution which was to be applied in a dose of 1 to 2 drops per 2 cm^2 body surface area. Subjects in either the mometasone monotherapy group or the bimatoprost/mometasone combination group the subjects were instructed to administer mometasone in the form of 0.1 wt. % mometasone furoate cream which was to be applied in a dose of 1 to 2 pea-sized quantities per anatomic area. The subjects were blind as to which group they were in and therefore which drug(s) they were administering. During the study period, the subjects were periodically evaluated by an investigator. The investigators evaluated the subjects on a score of 0 to 7 with 0 meaning that the subject's condition was worse, 1 being unchanged, 2 being slight improvement (approximately 10% improvement), 3 being mild improvement (approximately 10 to 25% improvement), 4 being moderate improvement (approximately 25 to 50% improvement), 5 being marked improvement (approximately 50 to 75% improvement), 6 being almost cleared (approximately 75 to 99% improvement), 7 being cleared (100% improvement). Like the subjects, the investigators were blind as to which group the subjects they were evaluating were in and therefore which drug(s) they were evaluating were administering.

SMILES | subjects with mild improvement (score 3, approximately 10 to 25% improvement) [%] | subjects with moderate improvement (score 4, approximately 25 to 50% improvement) [%] | subjects with slight improvement (score 2, approximately 10% improvement) [%]
CCNC(=O)CCC/C=C\C[C@@H]1[C@@H](/C=C/[C@@H](O)CCc2ccccc2)[C@H](O)C[C@@H]1O [bimatoprost, Bimatoprost] | 60 | 40 | 
C[C@@H]1C[C@H]2[C@@H]3CCC4=CC(=O)C=C[C@]4(C)[C@@]3(Cl)[C@@H](O)C[C@]2(C)[C@@]1(OC(=O)c1ccco1)C(=O)CCl [mometasone, mometasone furoate] | 40 |  | 60

Source: patent US20180200263A1, “TOPICAL TREATMENT REGIMENS CONTAINING A PROSTAGLANDIN F2a ANALOG AND A TOPICAL STEROID” (priority 2015, published 2018)
